These results are taken from patent US7172879B2, “Detection of sphingosine kinase activity and sphingosine kinase agonist or antagonist activity” (Johnson & Johnson Pharmaceutical Research & Development LLP, priority 1997, dated 2007).

Common to all, as to format: cell-based, human
In one data set the test system is VCAM-1. Description: Cell-surface expression of VCAM-1 by HUVECs, flow cytometry. As for the experimental part:
(§1) Confluent monolayers of HUVECs were preincubated with or without HDL that was isolated as the fraction of density 1.13˜1.21 g/ml from human plasma at a concentration of 1 mg/ml of apoA-1. After 16-h preincubation, the cells were treated with TNFα (100 U/ml). Following 4-h treatment of TNFα, the cell-surface expression of VCAM-1 and E-selectin was measured by using flow cytometry.
(§2) HUVECs were treated with an increasing concentration of C2-ceramide with or without TNF α(100 U/ml), or an increasing concentration of Sph-1-P for 4 h. The cell-surface expression of VCAM-1 or E-selectin was measured by flow cytometry. Effect of sphingosine kinase inhibitor (DMS) on the expression of VCAM-1 and E-selectin. The cells were treated with a vehicle (Nil), DMS (5 μM), Sph-1-P (5 μM), C2-ceramide (10 μM) or TNFα (100 U/ml) for 4 h, then measure VCAM-1 or E-selectin expression. Effect of agents on E-selectin mRNA levels and the comparison between the effect of HDL and DMS. After the indicated treatment for 4 h, E-selectin mRNA levels were measured by Northern blotting assay. Results shown in (D) are representative of three similar experiments.
(A flow cytometer gives signals particle by particle.)

Another data set deals with ERK. Description: ERK activity in HUVECs, immunoprecipitation and MBP substrate. As to conditions: for stimulation of ERK activities: 30 min treatment. On the procedure:
After the cells were treated with an agent for 30 min, ERK activities were assayed with […] basic protein (MBP) as substrate after immunoprecipitation with antibodies against p42/p44^MAPK (Berra et al. 1995; Li et al., 1996; Lee et al., 1997). The kinase reaction products were separated on 10% SDS-polyacrylamide gels. Bar graph depicting ERK activities were quantified by Phosphoimager. NF-κB binding activity was measured by electrophoretic mobility shift assay after 30 min treatment as indicated.

Another data set relates to E-selectin. Description: Cell-surface expression of E-selectin by HUVECs, flow cytometry. On the procedure: as §1, §2
Another data set concerns sphingosine kinase. Description: Sphingosine kinase activity in cytosolic fractions of treated HUVECs. On the procedure: (§3) HUVECs were labelled with [^3H]sphingomyelin was measured at the desired time point of TNFα treatment. The unlabelled cells were treated with HDL and/or TNFα as indicated, cells were lysed to measure ceramide levels and sphingosine kinase activity, respectively. The cells were permeabilized to measure the production of Sph-1-P in vivo.
(§4) To measure sphingomyelin, the HUVECs were labeled with [^3H]serine (5 μCi/ml) for 48 h and preincubated with or without HDL for another 6 h. The cells were then washed three times and incubated for additional 2 h in the presence or absence of HDL. […] Sphingomyelin spots were visualized by fluorography, quantitated by scintillation spectrometry, and normalized by radioactivity recovered in total cellular lipids. […] To measure ceramide levels, cellular ceramide was extracted and quantified with the diacylglycerol kinase reaction (Kolesnick, 1991; Hannun & Bell, 1993). Sphingosine kinase activity was measured in vitro as previously described with some modification (Mattie et al., 1994; Ghosh et al., 1994; Choi et al., 1996). […] Sphingosine kinase activity was measured by incubating the supernatant with […] sphingosine-BSA complex and [γ^32P]ATP (1 mM, 5 μCi/ml) for 15 min at 37° C. […] Radioactivity of the spot corresponding to Sph-1-P was quantified using Phosphoimager system. […]

The next data set relates to sphingomyelin. Description: Sphingomyelin hydrolysis in labelled HUVECs. As to conditions: within 30 min of TNFα stimulation. On the procedure:
as §3, §4

Another data set has as its system ceramide. As to the kind of experiment: Cellular ceramide levels in HUVECs, diacylglycerol kinase reaction. As to conditions: peak at 30 min after TNFα treatment. On the procedure: as §3, §4
The test system of a further data set is NF-κB. Description: NF-κB binding activity in HUVEC nuclear extracts, electrophoretic mobility shift assay. As to conditions: HUVECs, 30 min treatment. As for the experimental part: After the cells were treated with an agent for 30 min, ERK activities were assayed with mycline basic protein (MBP) as substrate after immunoprecipitation with antibodies against p42/p44^MAPK (Berra et al. 1995; Li et al., 1996; Lee et al., 1997). The kinase reaction products were separated on 10% SDS-polyacrylamide gels. Bar graph depicting ERK activities were quantified by Phosphoimager. NF-κB binding activity was measured by electrophoretic mobility shift assay after 30 min treatment as indicated. The specific NF-κB binding complexes were identified by the super-shift gel assay with anti-p50 and anti-p65 antibodies and by competition analyses with the addition of a 50-fold molar excess of unlabelled NF-κB oligonucleotides.
To measure the NF-κB binding activity, electrophoretic mobility-shift assays were performed. Nuclear extracts were prepared from HUVECs treated for 30 min with vehicle or the indicated agents. The double-stranded oligonucleotides used as a probe in these experiements included 5′-[…]-3′ (SEQ ID NO: 1) which contains a consensus NF-κB binding site in E-selection promoter that is underlined. Gel mobility shift of a consensus NF-κB oligonucleotide was performed by incubating ^32P-labelled NF-κB probe with […] of nuclear proteins. The Sph-1-P induced formation of NF-κB specific complexes were similar us that induced by TNFα. […]
On the technique in general: In EMSA bound probe runs differently from free probe, usually more slowly.

The test system of a further data set is Sph-1-P formation. Description: Sph-1-P formation in permeabilized HUVECs. As to conditions: endothelial cells; same concentration of DMS (5 μM). As for the experimental part: as §3, §4
The subject of another data set is E-selectin mRNA. As to the kind of experiment: E-selectin mRNA levels in HUVECs, Northern blotting. As to conditions: 4 h treatment. As for the experimental part: as §2
Total RNA was prepared from HUVECs that was treated with the indicated agents for 4 h. Equal aliquots of total RNA (12 μg) were electrophoresed in a 1% formaldehyde gel and transferred to nylon membrane. The blots were hybridized with α^=P-labeled E-selection cDNA probe. The mRNA levels of E-selectin were quantified by Phosphoimager and normalised to radiolabeled GAPDH probe.

Setting [1] is: HUVECs, TNFα 100 U/ml, 4 h, flow cytometry.
Where [2] appears, read: at 51 μM, compared with 100 U/ml TNF-α.

For `CCCCCCCCCCCCC/C=C/[C@@H](O)[C@H](CO)NC(C)=O` [C2-ceramide], the “inhibition of TNFα-induced expression of VCAM-1” value in the data set on VCAM-1 (setting [1]) is over 60%. Also, the “stimulation of ERK activities” value in the data set on ERK was “did not”. In the data set with E-selectin (setting [1]), the “inhibition of TNFα-induced expression of E-selectin” value was over 60%.
Turning to TNFα, in the data set with sphingosine kinase (HUVECs, within 5 min, p<0.01), the “cytosolic sphingosine kinase activity, maximum, % of basal” value turned out to be 165±13%. Besides, in the data set with sphingomyelin, the “cellular sphingomyelin content, % of control” value is 40%. Moreover, in the data set on ceramide, the “increase of cellular ceramide levels” value is given as “approximately 2 fold”. Moreover, the “stimulation of ERK activities” value with ERK is “approximately equipotent”.
As to N,N-dimethylsphingosine [DMS], in the data set with sphingosine kinase (endothelial cells, same concentration of DMS (5 μM)), the “inhibition of sphingosine kinase activity induced either by TNF-α or PMA” value is on record as over 90%. Also, in the data set on VCAM-1 (HUVECs, Sph-1-P 5 μM, 4 h), the “effect on Sph-1-P induced adhesion protein expression (VCAM-1)” value was “did not prevent”. The “inhibition of TNFα-activated ERK” value with ERK (30 min, p<0.02) came to 50%. Also, the “effect on Sph-1-P induced adhesion protein expression (E-selectin)” value in the data set on E-selectin (HUVECs, Sph-1-P 5 μM, 4 h) is given as “did not prevent”. Besides, the “inhibition of Sph-1-P induced activation of NF-κB” value in the data set with NF-κB was “did not inhibit”. The “inhibition of Sph-1-P formation induced either by TNF-α or PMA” value with Sph-1-P formation is given as over 90%.
Turning to `CCCCCCCCCCCCC/C=C/[C@@H](O)[C@@H](N)COP(=O)(O)O` [Sph-1-P, sphingosine-1-phosphate], the “induction of VCAM-1, level reached” value in the data set on VCAM-1 (setting [2]) is given as “approximately equivalent to 100 U/ml TNF-α”. Besides, in the data set with ERK, the “stimulation of ERK activities” value is on record as “approximately equipotent”. Also, the “induction of E-selectin mRNA” value with E-selectin mRNA is reported as “induction of E-selectin mRNA”. Besides, the “induction of E-selectin, level reached” value in the data set on E-selectin (setting [2]) was “approximately equivalent to 100 U/ml TNF-α”. The “induction of nuclear NF-κB accumulation” value in the data set on NF-κB is given as “significant nuclear NF-κB accumulation”.
